Laboratory results taken from US9884818B2, “Sulphamoylpyrrolamide derivatives and the use thereof as medicaments for the treatment of hepatitis B” (Janssen Sciences Ireland UC, priority 2013, dated 2018).

Columns and labels:
HBV [1] = assay: Anti-HBV activity, HepG2.2.15 stable transfected cell line, HBV DNA from secreted virions by realtime PCR; format: cell-based; conditions: Hepatitis B virus, HepG2.2.15, 144 h, HepG2.2.15 cells, 6 days of treatment, HBV DNA from secreted virions; read-out: HepG2 2.15 EC50
[2] = Cytotoxicity in HepG2 cells, Resazurin viability assay; conditions: human, HepG2 cells, HepG2 4 days CC50 (μM), incubated for 4 days, Resazurin assay
HBV [3] = assay: Anti-HBV activity, HepG2.117 inducibly HBV producing cell line (Tet-off), intracellular HBV DNA by realtime PCR; format: cell-based; conditions: Hepatitis B virus, HepG2.117, 72 h, HepG2.117 cells, 3 days of treatment, intracellular HBV DNA; read-out: HepG2 117 EC50

CC(CC(F)(F)F)NS(=O)(=O)c1cc(C(=O)Nc2ccc(F)c(Cl)c2F)n(C)c1 (stereo not drawn) [Compound 260, N-(3-chloro-2,4-difluoro-phenyl)-1-methyl-4-[(3,3,3-trifluoro-1-methylpropyl)sulfamoyl]-1H-pyrrole-2-carboxamide]
EC50 (HBV [1]): 0.07 µM | CC50 at 4 days [2]: > 25 µM | EC50 (HBV [3]): 0.09 µM

Cc1c(F)ccc(NC(=O)c2c(Cl)c(S(=O)(=O)N[C@H](C)C(F)(F)F)cn2C)c1C#N [Compound 272, 3-chloro-N-(2-cyano-4-fluoro-3-methyl-phenyl)-1-methyl-4-[[(1R)-2,2,2-trifluoro-1-methyl-ethyl]sulfamoyl]pyrrole-2-carboxamide]
EC50 (HBV [1]): 0.3 µM | CC50 at 4 days [2]: > 25 µM | EC50 (HBV [3]): 0.76 µM

C[C@H](NS(=O)(=O)c1cc(C(=O)Nc2ccc(F)c(Br)c2F)n(C)c1)C(F)(F)F [Compound 155, N-(3-Bromo-2,4-difluorophenyl)-1-methyl-4-{[(1S)-2,2,2-trifluoro-1-methylethyl]sulfamoyl}-1H-pyrrole-2-carboxamide]
EC50 (HBV [1]): 0.03 µM | CC50 at 4 days [2]: > 25 µM | EC50 (HBV [3]): 0.05 µM

[2H]c1cc(F)c(C)c([2H])c1NC(=O)c1cc(S(=O)(=O)NC(C)(C)C)cn1C [Compound 67, 4-(tert-butylsulfamoyl)-N-(2,6-dideuterio-4-fluoro-3-methyl-phenyl)-1-methyl-pyrrole-2-carboxamide]
EC50 (HBV [1]): 0.02 µM | CC50 at 4 days [2]: > 25 µM | EC50 (HBV [3]): 0.03 µM

Cn1cc(S(=O)(=O)NCC(F)F)cc1C(=O)Nc1ccc(F)c(F)c1 [Compound 129, 4-[(2,2-Difluoroethyl)sulfamoyl]-N-(3,4-difluorophenyl)-1-methyl-1H-pyrrole-2-carboxamide]
EC50 (HBV [1]): 0.17 µM | CC50 at 4 days [2]: > 25 µM | EC50 (HBV [3]): 0.08 µM

Cc1c(F)ccc(NC(=O)c2cc(S(=O)(=O)NC(C)C)cn2C)c1F [Compound 99, N-(2,4-Difluoro-3-methylphenyl)-1-methyl-4-[(1-methylethyl)sulfamoyl]-1H-pyrrole-2-carboxamide]
EC50 (HBV [1]): 0.13 µM | CC50 at 4 days [2]: > 25 µM | EC50 (HBV [3]): 0.1 µM

Cn1cc(S(=O)(=O)NC(CF)CF)cc1C(=O)Nc1ccc(F)c(Cl)c1F [Compound 264, N-(3-chloro-2,4-difluoro-phenyl)-4-{[2-fluoro-1-(fluoromethyl)-ethyl]sulfamoyl}-1-methyl-1H-pyrrole-2-carboxamide]
EC50 (HBV [1]): 0.09 µM | CC50 at 4 days [2]: > 25 µM | EC50 (HBV [3]): 0.13 µM

Cc1c(S(=O)(=O)N[C@@H](C)C(F)(F)F)cn(C)c1C(=O)Nc1ccc(F)c(Cl)c1F [Compound 209, N-(3-Chloro-2,4-difluorophenyl)-1,3-dimethyl-4-{[(1S)-2,2,2-trifluoro-1-methylethyl]sulfamoyl}-1H-pyrrole-2-carboxamide]
EC50 (HBV [1]): 0.09 µM | CC50 at 4 days [2]: > 25 µM | EC50 (HBV [3]): 0.09 µM

Cc1cc(NC(=O)c2cc(S(=O)(=O)NC3(CO)CC3)cn2C)ccc1F [Compound 12, N-(4-fluoro-3-methyl-phenyl)-4-[[1-(hydroxymethyl)cyclopropyl]sulfamoyl]-1-methyl-pyrrole-2-carboxamide]
EC50 (HBV [1]): 0.12 µM | CC50 at 4 days [2]: > 25 µM | EC50 (HBV [3]): 0.06 µM

Cc1c(S(=O)(=O)N[C@H](C)C(F)(F)F)cc(C(=O)Nc2ccc(F)c(C#N)c2)n1C [Compound 140, N-(3-Cyano-4-fluorophenyl)-1,5-dimethyl-4-{[(1R)-2,2,2-trifluoro-1-methylethyl]sulfamoyl}-1H-pyrrole-2-carboxamide]
EC50 (HBV [1]): 0.1 µM | CC50 at 4 days [2]: > 25 µM | EC50 (HBV [3]): 0.06 µM

C[C@H](NS(=O)(=O)c1cc(C(=O)Nc2ccc(F)c(C#N)c2)n(C)c1)C(C)(F)F [Compound 297, N-(3-cyano-4-fluoro-phenyl)-4-[[(1S)-2,2-difluoro-1-methyl-propyl]sulfamoyl]-1-methyl-pyrrole-2-carboxamide]
EC50 (HBV [1]): 0.04 µM | CC50 at 4 days [2]: 22.6 µM | EC50 (HBV [3]): 0.09 µM

CC[C@@H](C)NS(=O)(=O)c1cn(C)c(C(=O)Nc2ccc(F)c(C#N)c2)c1F [Compound 186, N-(3-Cyano-4-fluorophenyl)-3-fluoro-1-methyl-4-{[(1R)-1-methyl-propyl]sulfamoyl}-1H-pyrrole-2-carboxamide]
EC50 (HBV [1]): 0.008 µM | CC50 at 4 days [2]: > 25 µM | EC50 (HBV [3]): 0.005 µM

Cn1cc(S(=O)(=O)NC2(C)COC2)c(F)c1C(=O)Nc1ccc(F)c(Cl)c1F [Compound 215, N-(3-Chloro-2,4-difluorophenyl)-3-fluoro-1-methyl-4-[(3-methyloxetan-3-yl)sulfamoyl]-1H-pyrrole-2-carboxamide]
EC50 (HBV [1]): 0.02 µM | CC50 at 4 days [2]: > 25 µM | EC50 (HBV [3]): 0.01 µM

CC(C)NS(=O)(=O)c1cn(C)c(C(=O)Nc2ccc(F)c(C#N)c2)c1Cl [Compound 269, 3-Chloro-N-(3-cyano-4-fluorophenyl)-1-methyl-4-[(1-methylethyl)sulfamoyl]-1H-pyrrole-2-carboxamide]
EC50 (HBV [1]): 0.05 µM | CC50 at 4 days [2]: > 25 µM | EC50 (HBV [3]): 0.07 µM

CCC(C)(C)NS(=O)(=O)c1cc(C(=O)Nc2cc(F)c(F)c(Cl)c2)n(C)c1 [Compound 66, N-(3-chloro-4,5-difluoro-phenyl)-4-(1,1-dimethylpropylsulfamoyl)-1-methyl-pyrrole-2-carboxamide]
EC50 (HBV [1]): 0.03 µM | CC50 at 4 days [2]: > 25 µM | EC50 (HBV [3]): 0.03 µM

Cc1c(S(=O)(=O)N[C@H](C)C(F)(F)F)cn(C)c1C(=O)Nc1cc(F)c(F)c(Cl)c1 [Compound 202, N-(3-Chloro-4,5-difluorophenyl)-1,3-dimethyl-4-{[(1R)-2,2,2-trifluoro-1-methylethyl]sulfamoyl}-1H-pyrrole-2-carboxamide]
EC50 (HBV [1]): 0.03 µM | CC50 at 4 days [2]: > 25 µM | EC50 (HBV [3]): 0.02 µM

Cc1c(F)ccc(NC(=O)c2cc(S(=O)(=O)NC3(C(F)(F)F)CC3)cn2C)c1F [Compound 117, N-(2,4-Difluoro-3-methylphenyl)-1-methyl-4-{[1-(trifluoromethyl)-cyclopropyl]sulfamoyl}-1H-pyrrole-2-carboxamide]
EC50 (HBV [1]): 0.007 µM | CC50 at 4 days [2]: > 25 µM | EC50 (HBV [3]): 0.01 µM

C[C@@H](NS(=O)(=O)c1cc(C(=O)Nc2cc(F)c(F)c(Br)c2)n(C)c1)C(F)(F)F [Compound 205, N-(3-Bromo-4,5-difluorophenyl)-1-methyl-4-{[(1R)-2,2,2-trifluoro-1-methylethyl]sulfamoyl}-1H-pyrrole-2-carboxamide]
EC50 (HBV [1]): 0.08 µM | CC50 at 4 days [2]: 13 µM | EC50 (HBV [3]): 0.03 µM

Cc1c(S(=O)(=O)NC2(C)COC2)cc(C(=O)Nc2cc(F)c(F)c(Cl)c2)n1C [Compound 136, N-(3-Chloro-4,5-difluorophenyl)-1,5-dimethyl-4-[(3-methyloxetan-3-yl)sulfamoyl]-1H-pyrrole-2-carboxamide]
EC50 (HBV [1]): 0.06 µM | CC50 at 4 days [2]: > 25 µM | EC50 (HBV [3]): 0.06 µM

CC(C)NS(=O)(=O)c1cc(C(=O)Nc2ccc(F)c(C#N)c2)n(C)c1 [Compound 175, N-(3-Cyano-4-fluorophenyl)-1-methyl-4-[(1-methylethyl)sulfamoyl]-1H-pyrrole-2-carboxamide]
EC50 (HBV [1]): 0.07 µM | CC50 at 4 days [2]: > 25 µM | EC50 (HBV [3]): 0.13 µM

Cn1cc(S(=O)(=O)NC(C)(C)C)cc1C(=O)Nc1cc(F)cc(C#N)c1 [Compound 53, 4-(tert-butylsulfamoyl)-N-(3-cyano-5-fluoro-phenyl)-1-methyl-pyrrole-2-carboxamide]
EC50 (HBV [1]): 0.26 µM | CC50 at 4 days [2]: > 25 µM | EC50 (HBV [3]): 0.18 µM

Cc1c(F)ccc(NC(=O)c2cc(S(=O)(=O)N[C@@H](C)C(F)(F)F)cn2C)c1F [Compound 119, N-(2,4-Difluoro-3-methylphenyl)-1-methyl-4-{[(1S)-2,2,2-trifluoro-1-methylethyl]sulfamoyl}-1H-pyrrole-2-carboxamide]
EC50 (HBV [1]): 0.03 µM | CC50 at 4 days [2]: > 25 µM | EC50 (HBV [3]): 0.01 µM

CCn1cc(S(=O)(=O)N[C@H]2CCOC2)cc1C(=O)Nc1ccc(F)c(C)c1 [Compound 30, 1-ethyl-N-(4-fluoro-3-methyl-phenyl)-4-[[(3S)-tetrahydrofuran-3-yl]-sulfamoyl]pyrrole-2-carboxamide]
EC50 (HBV [1]): 0.45 µM | CC50 at 4 days [2]: > 25 µM | EC50 (HBV [3]): 0.33 µM

Cc1cc(NC(=O)c2cc(S(=O)(=O)N[C@H](C)C(F)(F)F)cn2C)ccc1F [Compound 9, N-(4-fluoro-3-methyl-phenyl)-1-methyl-4-[[(1R)-2,2,2-trifluoro-1-methyl-ethyl]sulfamoyl]pyrrole-2-carboxamide]
EC50 (HBV [1]): 0.01 µM | CC50 at 4 days [2]: > 25 µM | EC50 (HBV [3]): 0.03 µM

Cn1cc(S(=O)(=O)NC(C)(C)C)cc1C(=O)Nc1ccc(F)c(C(C)(F)F)c1 [Compound 162, 4-(tert-Butylsulfamoyl)-N-[3-(1,1-difluoroethyl)-4-fluorophenyl]-1-methyl-1H-pyrrole-2-carboxamide]
EC50 (HBV [1]): > 1 µM | CC50 at 4 days [2]: > 25 µM | EC50 (HBV [3]): 0.89 µM

Cc1cc(NC(=O)c2c(C)c(S(=O)(=O)NC3(C)COC3)cn2C)ccc1F [Compound 90, N-(4-Fluoro-3-methylphenyl)-1,3-dimethyl-4-[(3-methyloxetan-3-yl)sulfamoyl]-1H-pyrrole-2-carboxamide]
EC50 (HBV [1]): 0.05 µM | CC50 at 4 days [2]: > 25 µM | EC50 (HBV [3]): 0.03 µM

Cc1cc(NC(=O)c2cc(S(=O)(=O)NC3(C)COC3)cn2C)cc(C)c1F [Compound 80, N-(4-Fluoro-3,5-dimethylphenyl)-1-methyl-4-[(3-methyloxetan-3-yl)sulfamoyl]-1H-pyrrole-2-carboxamide]
EC50 (HBV [1]): 0.04 µM | CC50 at 4 days [2]: > 25 µM | EC50 (HBV [3]): 0.09 µM

C[C@H](NS(=O)(=O)c1cc(C(=O)Nc2cc(F)c(F)c(Cl)c2)n(C)c1)C(F)(F)F [Compound 103, N-(3-Chloro-4,5-difluorophenyl)-1-methyl-4-{[(1S)-2,2,2-trifluoro-1-methylethyl]sulfamoyl}-1H-pyrrole-2-carboxamide]
EC50 (HBV [1]): 0.05 µM | CC50 at 4 days [2]: > 25 µM | EC50 (HBV [3]): 0.02 µM
